The source of these data is the NIST ThermoML archive (doi:10.1016/j.fluid.2013.09.028).

A short description of the series: refractive index (Na D-line) (dimensionless); wn = mass fraction of the nth substance listed. The settings on record: 298.15 K, 101 kPa, Liquid, Standard Abbe refractometry.

Numbers after ± are expanded uncertainties.

In general, refractive index refers to the speed of light in vacuum divided by its phase velocity in the sample. As to `CN1CCCC1=O` [N-methylpyrrolidone] + O, the refractive index by setting is: (w1 = 0.0958) 1.3462 ± 0.0005; (w1 = 0.0961) 1.3462 ± 0.0005.
Turning to `CC#N` [acetonitrile] + O, the refractive index is, setting by setting: (w1 = 0.0473) 1.3425 ± 0.0005; (w1 = 0.0477) 1.3404 ± 0.0005.
For the compound `O=C([O-])[O-].[K+].[K+]` [potassium carbonate] + O, the refractive index by setting is: (w1 = 0.0475) 1.3401 ± 0.0005; (w1 = 0.0968) 1.3378 ± 0.0005.
In the case of `O=C([O-])[O-].[Na+].[Na+]` [sodium carbonate] + O, the refractive index (w1 = 0.0473) came to 1.3426 ± 0.0005 and the refractive index (w1 = 0.097) is listed as 1.3378 ± 0.0005.
